Structures can show the parent of a compound that is named as a salt.

This assay has as its target T1, human α-thrombin (Homo sapiens, UniProt P00734).
T1 construct: Human α-thrombin, human factor Xa and human plasmin were obtained from Enzyme Research Laboratories; purchased Enzyme Research Laboratories (South Bend, Ind.)
The assay is described as follows: Thrombin inhibition, Ki determination (hydrolysis of N-succinyl-Ala-Ala-Pro-Arg-p-nitroanilide). Type of assay: biochemical. Particulars: Table 1; pH 7.5, 37° C.; read-out: Thrombin Ki. The text has this:
All buffer salts were obtained from Sigma Chemical Company (St. Louis, Mo.), and were of the highest purity available. The enzyme substrates, N-benzoyl-Phe-Val-Arg-p-nitroanilide (Sigma B7632), N-benzoyl-Ile-Glu-Gly-Arg-p-nitroanilide hydrochloride (Sigma B2291), N-p-Tosyl-Gly-Pro-Lys-p-nitroanilide (Sigma T6140), N-succinyl-Ala-Ala-Pro-Phe-p-nitroanilide (Sigma S7388) and N-CBZ-Val-Gly-Arg-p-nitroanilide (Sigma C7271) were obtained from Sigma.
Human α-thrombin, human factor Xa and human plasmin were obtained from Enzyme Research Laboratories (South Bend, Ind.). Bovine α-chymotrypsin (Sigma C4129), bovine trypsin (Sigma T8642) and human kidney cell urokinase (Sigma U5004) were obtained from Sigma. Human leukocyte elastase was obtained from Elastin Products (Pacific, Mo.).
All assays are based on the ability of the test compound to inhibit the enzyme catalyzed hydrolysis of a peptide p-nitroanilide substrate. […] The final concentrations for each of the substrates is listed below. In general, substrate concentrations are lower than the experimentally determined value for Km. Test compounds are prepared as a 1.0 mg/ml solution in DMSO. Dilutions are prepared in DMSO yielding 8 final concentrations encompassing a 200 fold concentration range. Enzyme solutions are prepared at the concentrations listed below in assay buffer.
Data corresponding to less than 10% of the total substrate hydrolysis were used in the calculations. The ratio of the velocity (rate of change in absorbance as a function of time) for a sample containing no test compound is divided by the velocity of a sample containing test compound, and is plotted as a function of test compound concentration. The data are fit to a linear regression, and the value of the slope of the line calculated. The inverse of the slope is the experimentally determined Ki value.
Thrombin activity was assessed as the ability to hydrolyze the substrate N-succinyl-Ala-Ala-Pro-Arg-p-nitroanilide.
In general, Ki refers to a dissociation constant, usually derived from enzyme kinetics or from competition with a known ligand. In the case of `COc1ccc(Cl)cc1S(=O)(=O)Oc1cc(C)cc(OCCC=NNC(=N)N)c1` [Example 18, 2-[2-[3-(5-Chloro-2-methoxyphenylsulfonyloxy)-5-methylphenoxy]ethyl-1-methylene]hydrazinecarboximidamide hydrochloride], the Ki is 0.0047 µM.

Consider `Cc1cc(OCCC=NNC(=N)N)cc(OS(=O)(=O)c2c(C)nn(C)c2Cl)c1` [Example 20, 2-[2-[3-(5-chloro-1,3-dimethylpyrazole-4-sulfonyloxy)-5-methylphenoxy]ethyl-1-methylene]hydrazinecarboximidamide acetate], for which the Ki was found to be 0.0762 µM.

In the case of `Cc1cc(OCCC=NNC(=N)N)cc(OS(=O)(=O)c2cccnc2)c1` [Example 34, 2-[2-[5-methyl-3-(3-pyridinylsulfonyloxy)phenoxy]ethyl-1-methylene]hydrazinecarboximidamide diacetate], the inhibition constant (Ki) is 0.056 µM.

On to `COc1cc(CCCC=NNC(=N)N)cc(OS(=O)(=O)c2ccccc2Cl)c1` [Example 4, 2-[3-[3-(2-chlorophenylsulfonyloxy)-5-methoxyphenyl]propyl-1-methylene]hydrazinecarboximidamide hydrochloride], for which the Ki is 1.27 µM.

With `COc1ccc(C)cc1S(=O)(=O)Oc1cc(C)cc(OCCC=NNC(=N)N)c1` [Example 14, 2-[2-[3-(2-Methoxy-5-methylphenylsulfonyloxy)-5-methylphenoxy]ethyl-1-methylene]hydrazinecarboximidamide nitrate], the Ki was 0.0475 µM.

`Cc1cc(OCCC=NNC(=N)N)cc(OS(=O)(=O)c2cc(F)ccc2C)c1` [Example 24, 2-[2-[3-(5-Fluoro-2-methylphenylsulfonyloxy)-5-methylphenoxy]ethyl-1-methylene]hydrazinecarboximidamide nitrate]: the Ki turned out to be 0.0135 µM.

For `Cc1cc(OCCC=NNC(=N)N)cc(OS(=O)(=O)c2cc(C)ccc2C#N)c1` [Example 30, 2-[2-[3-(2-Cyano-5-methylphenylsulfonyloxy)-5-methylphenoxy]ethyl-1-methylene]hydrazinecarboximidamide nitrate], the Ki came to 0.0334 µM.

Take `COc1ccccc1S(=O)(=O)Oc1cc(C)cc(OCCCC=NNC(=N)N)c1` [Example 23, 2-[3-[3-(2-Methoxyphenylsulfonyloxy)-5-methylphenoxy]propyl-1-methylene]hydrazinecarboximidamide nitrate]: the Ki came to 1.67 µM.

Take `Cc1cc(OCCC=NNC(=N)N)cc(OS(=O)(=O)c2cccc3cnccc23)c1` [Example 32, 2-[2-[3-(5-Isoquinolinylsulfonyloxy)-5-methylphenoxy]ethyl-1-methylene]hydrazinecarboximidamide nitrate]: the Ki is 0.0249 µM.

Consider `CCOC(=O)CCCCCN(c1cc(C)cc(OCCC=NNC(=N)N)c1)S(=O)(=O)c1ccccc1C(F)(F)F` [Example 5, 2-[2-[(5-methyl-3-(N-(5-ethoxycarbonylpentyl)-N-(2-trifluoromethylphenylsulfonyl)amino)phenoxy]ethyl-1-methylene]hydrazinecarboximidamide nitrate], for which the Ki came to 0.0264 µM.

With `Cc1cc(OCC2(C=NNC(=N)N)CC2)cc(OS(=O)(=O)c2ccccc2C#N)c1` [Example 39, 2-[[1-[3-(2-Cyanophenylsulfonyloxy)-5-methylphenoxy]-methyl]cyclopropyl-1-methylene]hydrazinecarboximidamide acetate], the Ki came out at 0.052 µM.

On to `Cc1cc(OCCC=NNC(=N)N)cc(OS(=O)(=O)c2ccccc2C(F)(F)F)c1` [Example 2, 2-[2-[5-Methyl-3-(2-trifluoromethylphenylsulfonyloxy)phenoxy]ethyl-1-methylene]hydrazinecarboximidamide nitrate], for which the inhibitory constant (Ki) was found to be 0.0084 µM.

As to `COc1ccc(Br)cc1S(=O)(=O)Oc1cc(C)cc(OCCC=NNC(=N)N)c1` [Example 9, 2-[2-[3-(5-Bromo-2-methoxyphenylsulfonyloxy)-5-methylphenoxy]ethyl-1-methylene]hydrazinecarboximidamide nitrate], the inhibitory constant (Ki) is 0.0094 µM.

Regarding `Cc1cc(OCCC=NNC(=N)N)cc(OS(=O)(=O)c2cccc(C#N)c2)c1` [Example 36, 2-[2-[3-(3-Cyanophenylsulfonyloxy)-5-methylphenoxy]ethyl-1-methylene]hydrazinecarboximidamide nitrate], the Ki worked out at 0.068 µM.

`Cc1cc(OCCC=NNC(=N)N)cc(OS(=O)(=O)c2cccc3ccccc23)c1` [Example 25, 2-[2-[5-Methyl-3-(1-naphthalenylsulfonyloxy)phenoxy]ethyl-1-methylene]hydrazinecarboximidamide nitrate]: the inhibitory constant (Ki) turned out to be 0.0632 µM.

Consider `COc1ccccc1S(=O)(=O)Oc1cc(C)cc(OCCC=NNC(=N)N)c1` [Example 8, 2-[2-[3-(2-Methoxyphenylsulfonyloxy)-5-methylphenoxy]ethyl-1-methylene]hydrazinecarboximidamide acetate], for which the Ki was determined as 0.0064 µM.

For the compound `Cc1cc(OCCC=NNC(=N)N)cc(OS(=O)(=O)c2cc(C)ccc2C)c1` [Example 17, 2-[2-[3-(2,5-Dimethylphenylsulfonyloxy)-5-methylphenoxy]ethyl-1-methylene]hydrazinecarboximidamide nitrate], the Ki stood at 0.0062 µM.

In the case of `COc1ccc(Cl)cc1S(=O)(=O)Oc1cc(C)cc(OCCC=NN(N)C(=N)N)c1` [Example 28, 1-Amino-2-[2-[3-(5-chloro-2-methoxyphenylsulfonyloxy)-5-methylphenoxy]ethyl-1-methylene]hydrazinecarboximidamine acetate], the Ki was determined as 0.186 µM.

With `Cc1cc(OCCC=NNC(=N)N)cc(OS(=O)(=O)c2cccc(F)c2)c1` [Example 35, 2-[2-[3-(3-Fluorophenylsulfonyloxy)-5-methylphenoxy]ethyl-1-methylene]hydrazinecarboximidamide nitrate], the Ki was determined as 0.031 µM.

As for `Cc1cc(OCCC=NNC(=N)N)cc(OS(=O)(=O)c2cccc3nsnc23)c1` [Example 11, 2-[2-[3-(Benzo-2,1,3-thiadiazole-4-sulfonyloxy)-5-methylphenoxy]ethyl-1-methylene]hydrazinecarboximidamide nitrate], the Ki was 0.0296 µM.

Consider `Cc1cc(OCCC=NNC(=N)N)cc(OCc2ccccc2C(F)(F)F)c1` [Example 3, 2-[2-[5-methyl-3-(2-trifluoromethylbenzyloxy)phenoxy]ethyl-1-methylene]hydrazinecarboximidamide nitrate], for which the Ki is 0.465 µM.

Turning to `COc1ccc(OC)c(S(=O)(=O)Oc2cc(C)cc(OCCC=NNC(=N)N)c2)c1` [Example 16, 2-[2-[3-(2,5-Dimethoxyphenylsulfonyloxy)-5-methylphenoxy]ethyl-1-methylene]hydrazinecarboximidamide nitrate], the inhibitory constant (Ki) was determined as 0.0213 µM.

For `Cc1cc(OCCC=NNC(=N)N)cc(OS(=O)(=O)c2ccccc2OC(F)(F)F)c1` [Example 10, 2-[2-[5-Methyl-3-(2-trifluoromethoxyphenylsulfonyloxy)phenoxy]ethyl-1-methylene]hydrazinecarboximidamide nitrate], the Ki was 0.0172 µM.

As to `Cc1cc(OCCC=NNC(=N)N)cc(OS(=O)(=O)c2cccc(Cl)c2)c1` [Example 21, 2-[2-[3-(3-Chlorophenylsulfonyloxy)-5-methylphenoxy]ethyl-1-methylene]hydrazinecarboximidamide nitrate], the Ki was 0.0036 µM.

Consider `COc1ccc(Cl)cc1S(=O)(=O)Oc1cc(C)cc(OCCC=NNC(=N)NN)c1` [Example 27, 2-Amino-[2-[2-[3-(5-chloro-2-methoxyphenylsulfonyloxy)-5-methylphenoxy]ethyl-1-methylene]hydrazine]carboximidamine acetate], for which the inhibitory constant (Ki) amounted to 0.298 µM.

Consider `Cc1cc(OCCC=NNC(=N)N)cc(OS(=O)(=O)c2cccc(Cl)c2Cl)c1` [Example 6, 2-[2-[3-(2,3-Dichlorophenylsulfonyloxy)-5-methylphenoxy]ethyl-1-methylene]hydrazinecarboximidamide nitrate], for which the Ki came out at 0.0136 µM.

Take `Cc1cc(OCCC=NNC(=N)N)cc(OS(=O)(=O)c2cccc(C)c2)c1` [Example 12, 2-[2-[5-Methyl-3-(3-methylphenylsulfonyloxy)phenoxy]ethyl-1-methylene]hydrazinecarboximidamide nitrate]: the inhibition constant Ki came out at 0.0089 µM.

`Cc1cc(OCCC=NNC(=N)N)cc(OS(=O)(=O)c2cc([N+](=O)[O-])ccc2C)c1` [Example 22, 2-[2-[5-Methyl-3-(2-methyl-5-nitrophenylsulfonyloxy)phenoxy]ethyl-1-methylene]hydrazinecarboximidamide nitrate]: the Ki is 0.0636 µM.

Take `Cc1cc(OCCC=NNC(=N)N)cc(OS(=O)(=O)c2cc(Cl)ccc2Cl)c1` [Example 7, 2-[2-[3-(2,5-Dichlorophenylsulfonyloxy)-5-methylphenoxy]ethyl-1-methylene]hydrazinecarboximidamide nitrate]: the Ki stood at 0.0149 µM.

The values are drawn from patent US5891909A, “Amidinohydrazones as protease inhibitors” (3-Dimensional Pharmaceuticals, Inc., priority 1997, dated 1999).
